{"source": "ChEMBL document CHEMBL5537138", "about": "“Identification of a novel potent CDK inhibitor degrading cyclinK with a superb activity to reverse trastuzumab-resistance in HER2-positive breast cancer in vivo” (Eur J Med Chem, 2024)", "test": "in vitro", "settings": "PAMPA", "description": "Permeability of compound at 12.5 uM incubated for 4 hrs by GIT PAMPA assay"}
{"smiles": "CCn1cnc2c(NCc3ccc(-c4ccoc4)nc3)nc(-c3cccnc3)nc21", "values": [{"measurement": "Papp at 4 h, 12.5 µM", "value": 72.4, "unit": "×10⁻⁶ cm/s"}]}
